Results from US6632797B2, “Method of treating angiogenesis” (priority 1996, dated 2003).
“And” between values parts separate entries of the source, which are not always exact repeats. Equal entries are not always repeated.

Tests used:
[1] = test system: heterotopic bone formation; test: Rabbit heterotopic bone (HB) development model; format: in vivo; set-up: key: ++++: very marked amount of HB; +++: marked amount of HB; ++: between slight and marked amount of HB; +: slight amount of HB; 0: none amount of HB; conditions: 1 mg/kg/hour s.c. osmotic minipump, day 42
Protocol: Heterotopic bone formation is caused by a local growth and formation of bone. One essential component in this process is the activation of growth factors.
The right hind limb of adult rabbits (weight about 4.0 kg) was immobilized with the knee in extension by means of a plastic splint and an elastic bandage, so that the Vastus intermedius profundus (VIP) muscle was in a shortened position and the hip joint could be moved freely.
According to the standard model the rabbits were treated by removing the splint daily for 2-3 minutes for forcible and rapid manipulation of the knee.
IP3 was administered via subcutaneously operated osmotic minipumps to three rabbits. The dose level was 1 mg/kg/hour, and the time of application period was 14-21 days. The control group, another three rabbits received NaCl-solution by osmotic minipumps.
Anteposterior and lateral radiographs were made of the hind limbs of all rabbits weekly throughout the duration of the experiment which lasted 42 days.
At the end of the experiment the rabbits were killed with an overdose of Mebunat and the left and right femoral bones of each rabbit were dissected and boiled for macroscopic examination.

[2] = test system: fibroblast growth factor basic (bFGF); test: bFGF/Matrigel-induced swelling (tumor-like matrix) in nude mice; format: in vivo
Protocol: In a procedure similar to example 3 fibroblast growth factor basic (bFGF) was used.
D-myo-inositol-1,2,6-trisphosphate (IP3) was administered to five mice while another group of five mice, recieving saline, were a control group.

[3] = test system: basic fibroblast growth factor (b FGF); test: b FGF-induced bone formation on the calvaria of mice; format: in vivo; set-up: key to Severeness of bone formation: 0: no bone formation; ++++: severe bone formation
Protocol: Injection of basic fibroblast growth factor (b FGF) stimulates osteoblastic activity and leads to bone formation.
The osmotic minipumps were implanted on day 1.
To the calvaria of each animal, 10 μl of b FGF (concentration 50 μg/ml) was injected four times daily of the period of day 2 to day 4.
After the experimental period of 14 days each animal was investigated macroscopically and the histological preparations were further examined by conventional routines.
Macroscopically visible bone formation was measured according to scale from
0 which represents no bone formation to
++++ which represents severe bone formation

eye opening = test: Eye opening of new-born mice; format: in vivo; conditions: 192 μg/g/day, daily injections day 0 to day 7; controls 13.6 and 13.5 days
Source text: Growth factors are involved in processes occuring in new-born mammals. The biological process of eye opening is one example where specific growth factors affect the timing and completeness of the event.
Three groups of mice, 40 animals in each group were used. […] The third group served as a control without any treatment.

[4] = test system: Vascular permeability factor (VPF); test: VPF-induced vascular permeability, Evans Blue distribution in guinea pigs; format: in vivo, guinea pig; conditions: 5 mg/kg intravenous; after 60 minutes; control 62 mm^2
Protocol: Vascular permeability factor (VPF) promotes extravasation and oedema formation. Evans Blue was injected intravenously to 15 guinea pigs. This dye binds to plasma proteins and thereby provides a marker for vascular permeability to macromolecules.
50 mg of VPF was injected to each animal and the distribution of Evans Blue was measured.

[5] = target: T1, Fibroblast growth factor acidic (aFGF) (Homo sapiens, UniProt P05230); test: aFGF/Matrigel-induced swelling (tumor-like matrix) in nude mice; format: in vivo, BALBc nude mice; conditions: osmotic minipump, 0.4 g/ml, 14 days
T1 construct: purchased Sigma (USA)
Protocol: Fibroblast growth factor acidic (aFGF) from Sigma (USA), was diluted in a buffer, RPMI-1640 (Life Technologies, UK). 25 μg of aFGF was diluted in 125 μl buffer and 50 μl was transferred to a small Eppendorf tube. 150 μl of Matrigel® basement membrane matrix from Becton and Dickinson (UK) was added to the tube and the content was thoroughly mixed for 60 minutes. All equipment was sterilized by irradiation or autoclaving (115° C. in 10 minutes) before use and all procedures were performed at 7° C. The mixture was kept in an icebath before the animal experiment.
Ten female, specific pathogen free BALBc nude mice with a weight of 18-22 g were maintained in autoclaved type III makrolon cages with filter tops in horizontal air flow cabinets in a barrier unit equipped with HEPA filters. Autoclaved bedding, irradiated feed and sterile filtered water was used. Temperature and humidity was kept constant at 22±2° C., 65±5 RH.
When fibroblast growth factor (FGF) and Matrigel® is mixed and inovulated to nude mice, developments of a swelling process ressembling tumor begin to develop.
A portion of the mixture of Matrigel® and a FGF was inoculated subcutaneously by a 23 G needle in the right flank of the mice. Two days before all mice were surgically prepared with osmotic minipumps (Alzet, model 2002).
To another group of five mice saline was administered as a control group.

[6] = test system: Fibroblast growth factor (FGF); test: Interaction between FGF and radioactive IP3, co-elution on Sephadex G-25 / Heparin-Sepharose columns; format: binding; conditions: co-elution from Sephadex G-25, 50 mM Hepes pH 7.4
Protocol: The mixture was incubated for 1 hour at 4° C.
This type of column fractionate substances according to molecular weight. Substances with molecular weight exceeding 1500 will not penetrate the microspheres of the column and will accordingly elute quite soon after being loaded to the column, while smaller molecules will appear later as they partly or totally penetrate the microspheres depending on the molecular weight.
The incubate was loaded on the column and was uluted with 50 mM Hepes in fractions of 0.4 ml each.
To further determine the interaction the fractions with radioactivity and UV absorbance were loaded on a Heparin-Sepharose CL-6B column (Pharmacia Biotech, Sweden) (volume 25 ml, height 20 cm). […] Elution was performed with 50 mM Hepes, pH 7.4 and each fraction of 1 ml was collected for determination of radioactivity and UV absorbance. A peak with radioactivity but without UV absorption was loaded on a similar Sephadex G-25 column as described above and was eluted with the same type of buffer. Maximum radioactivity was obtained in fraction number 13 i.e. in this case the substance with radioactivity was more retained on the column.

T1 sequence (P05230 whole entry, species assumed): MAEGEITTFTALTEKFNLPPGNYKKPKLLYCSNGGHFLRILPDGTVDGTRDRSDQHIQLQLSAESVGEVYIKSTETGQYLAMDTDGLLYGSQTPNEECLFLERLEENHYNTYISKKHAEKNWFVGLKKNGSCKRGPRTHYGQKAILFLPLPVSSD

## O=P(O)(O)OC1C(O)C(O)C(O)C(OP(=O)(O)O)C1OP(=O)(O)O [IP3, D-myo-inositol-1,2,6-trisphosphate]
[1]; application of IP3 14 days, individual rabbits, 1 mg/kg
  Amount of HB: + and 0
[1]; application of IP3 21 days, individual rabbit
  Amount of HB: 0
[2]; Day 1
  volume of the formed matrix: 180 mm^3
[2]; Day 3
  volume of the formed matrix: 120 mm^3
[2]; Day 5
  volume of the formed matrix: 110 mm^3
[2]; Day 7
  volume of the formed matrix: 120 mm^3
[2]; Day 8
  volume of the formed matrix: 110 mm^3
[2]; Day 9
  volume of the formed matrix: 120 mm^3
[2]; group where IP3 was administered
  histological examinations of the animals: anti-angiogenic effects
[3]; 120 mg/kg/day for 14 days
  histological examination of the calvaria: anti-angiogenic properties
[3]; 120 mg/kg/day osmotic minipump for 14 days, individual animals
  Severeness of bone formation: 0
Eye opening
  eye opening, medium value: 15.3 days
[4]
  average area covered with Evans Blue: 15 mm^2
[5]; Day 1
  volume of the formed matrix: 150 mm^3
[5]; Day 4
  volume of the formed matrix: 125 mm^3
[5]; Day 5
  volume of the formed matrix: 90 mm^3
[5]; Day 6
  volume of the formed matrix: 50 mm^3
[5]; Day 7
  volume of the formed matrix: 50 mm^3
[5]; Day 8
  volume of the formed matrix: 70 mm^3
[5]; Day 9
  volume of the formed matrix: 70 mm^3
[6]
  interaction between FGF and IP3: strong interaction
